From patent US10030012B2, “Piperidin-1-yl and azepin-1-yl carboxylates as muscarinic M4 receptor agonists” (Heptares Therapeutics Limited, priority 2013, dated 2018) come the findings set out here.

One experiment has as its target human M2 receptor (Homo sapiens (Human), UniProt P08172). As to the kind of experiment: In vitro M2 functional assay (intracellular calcium, FLiPR Tetra). In kind it is cell-based. The procedure, abridged: (§1)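 CHOK1 cells stably expressing human M4 or M2 with Gα16, loaded with Calcium 5 dye 45 min at 37° C in HBSS/HEPES/BSA/probenecid pH 7.4. Fluorescence read 5 min after compound; EC50 from ten-point half-log curves, duplicate wells, four-parameter fit; efficacy relative to EC100 acetylcholine.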
(In general: Calcium assays in cells follow changes in intracellular calcium, usually with a dye or a luminescent sensor.)

A further experiment deals with human M4 receptor (Homo sapiens (Human), UniProt P08173). As to the kind of experiment: In vitro M4 functional assay (intracellular calcium, FLiPR Tetra). It is filed as cell-based. The following applies: for EC50: CHOK1 cells stably expressing human M4 receptor and Gα16, calcium flux; for Emax: relative efficacy to an EC100 concentration of acetylcholine, read-out: M4 % RE. The procedure, abridged: as §1
human M4 receptor, sequence (P08173 whole entry): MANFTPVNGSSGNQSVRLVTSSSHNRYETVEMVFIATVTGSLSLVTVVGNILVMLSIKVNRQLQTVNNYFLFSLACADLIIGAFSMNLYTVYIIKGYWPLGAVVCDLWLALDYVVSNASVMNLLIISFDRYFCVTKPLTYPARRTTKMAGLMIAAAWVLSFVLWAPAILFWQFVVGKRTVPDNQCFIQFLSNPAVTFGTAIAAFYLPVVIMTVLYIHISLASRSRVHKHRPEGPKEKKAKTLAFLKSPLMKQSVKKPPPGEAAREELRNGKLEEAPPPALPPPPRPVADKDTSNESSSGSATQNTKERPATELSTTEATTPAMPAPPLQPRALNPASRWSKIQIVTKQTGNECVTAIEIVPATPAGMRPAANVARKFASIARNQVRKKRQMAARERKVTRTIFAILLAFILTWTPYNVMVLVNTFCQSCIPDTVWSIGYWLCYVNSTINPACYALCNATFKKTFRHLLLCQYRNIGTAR

The mark [1] stands for this setting: CHOK1 cells stably expressing human M2 receptor and Gα16, calcium flux, No Response = no significant response of calcium flux indicative of agonism.

human M2 receptor, sequence (P08172 whole entry): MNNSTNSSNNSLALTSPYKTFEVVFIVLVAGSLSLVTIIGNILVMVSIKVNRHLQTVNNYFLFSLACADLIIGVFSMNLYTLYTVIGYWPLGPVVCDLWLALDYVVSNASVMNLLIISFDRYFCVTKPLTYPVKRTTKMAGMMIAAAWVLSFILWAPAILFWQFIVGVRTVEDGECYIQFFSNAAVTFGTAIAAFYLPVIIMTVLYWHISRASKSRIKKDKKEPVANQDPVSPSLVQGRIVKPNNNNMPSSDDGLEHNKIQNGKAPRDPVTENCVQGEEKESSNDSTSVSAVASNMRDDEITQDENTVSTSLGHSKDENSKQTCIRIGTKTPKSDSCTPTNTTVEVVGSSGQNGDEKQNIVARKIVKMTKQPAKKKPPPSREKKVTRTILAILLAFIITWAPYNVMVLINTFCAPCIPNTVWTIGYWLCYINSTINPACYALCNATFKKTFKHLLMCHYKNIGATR

Regarding `CCOC(=O)N1CCCC(N2CCC(c3ncccn3)CC2)CC1` (stereo not shown) [Example 74, Ethyl 4-[4-(pyrimidin-2-yl)piperidin-1-yl]azepane-1-carboxylate], the EC50 at human M2 receptor (setting [1]) is > 10000 nM. The activation at 10 µM on human M2 receptor (response at 10 μM compound, relative to an EC100 concentration of acetylcholine, read-out: M2 % RE @ 10 μM) amounted to 20%. Further, at human M4 receptor, the EC50 is 1050 nM and the Emax was 61%.
`CCOC(=O)N1CCCC(N2CCC(c3cncnc3C)CC2)CC1` (stereo not shown) [Example 75, Ethyl 4-[4-(4-methylpyrimidin-5-yl)piperidin-1-yl]azepane-1-carboxylate]: at human M2 receptor (setting [1]), the “M2 EC50” value is “No Response”. On human M4 receptor, the EC50 was 1010 nM and the Emax was 52%.
With `CCOC(=O)N1CCCC(N2CCC(c3cccnc3OCc3cscn3)CC2)CC1` (stereo not shown) [Example 76, Ethyl 4-{4-[2-(1,3-thiazol-4-ylmethoxy)pyridin-3-yl]piperidin-1-yl}azepane-1-carboxylate], the “M2 EC50” value on human M2 receptor (setting [1]) is given as “No Response”. Also, at human M4 receptor, the EC50 is 22 nM and the Emax came out at 84%.
Take `CCOC(=O)N1CCCC(N2CCC(c3cccnc3CC(C)C)CC2)CC1` (stereo not shown) [Example 77, Ethyl 4-{4-[2-(2-methylpropyl)pyridin-3-yl]piperidin-1-yl}azepane-1-carboxylate]: the “M2 EC50” value at human M2 receptor (setting [1]) is reported as “No Response”. In addition, at human M4 receptor, the EC50 was determined as 670 nM and the Emax came to 58%.
Turning to `COC(=O)N1CCC(CN2CCC(n3nc(C)cc3C)C2)CC1` (stereo not shown) [Example 78, Methyl 4-{[3-(3,5-dimethyl-1H-pyrazol-1-yl)pyrrolidin-1-yl]methyl}piperidine-1-carboxylate], the “M2 EC50” value at human M2 receptor (setting [1]) is “No Response”. On human M4 receptor, the EC50 is 2680 nM and the Emax worked out at 36%.
`CCOC(=O)N1CCC(CN2CCC(n3nc(C)cc3C)C2)CC1` (stereo not shown) [Example 79, Ethyl 4-{[3-(3,5-dimethyl-1H-pyrazol-1-yl)pyrrolidin-1-yl]methyl}piperidine-1-carboxylate]: the “M2 EC50” value at human M2 receptor (setting [1]) is given as “No Response”. Moreover, on human M4 receptor, the EC50 came out at 340 nM and the Emax amounted to 50%.
Turning to `CCOC(=O)N1CCCC(N2CCC(c3cccnc3-c3ncco3)CC2)CC1` (stereo not shown) [Example 80, Ethyl 4-{4-[2-(1,3-oxazol-2-yl)pyridin-3-yl]piperidin-1-yl}azepane-1-carboxylate], the “M2 EC50” value on human M2 receptor (setting [1]) is reported as “No Response”. Moreover, at human M4 receptor, the EC50 came to 850 nM and the Emax turned out to be 43%.
Turning to `CCOC(=O)N1CCC[C@H](N2CCC(n3cccn3)CC2)CC1` [Example 81, Ethyl (4S)-4-[4-(1H-pyrazol-1-yl)piperidin-1-yl]azepane-1-carboxylate], at human M2 receptor (setting [1]), the “M2 EC50” value is recorded as “No response”. For the same compound, on human M4 receptor, the EC50 worked out at 85 nM and the Emax is 83%.
As to `CCOC(=O)N1CCC[C@H](N2CCC(c3nccn3C)CC2)CC1` [Example 83, Ethyl (4S)-4-[4-(1-methyl-1H-imidazol-2-yl)piperidin-1-yl]azepane-1-carboxylate], on human M2 receptor (setting [1]), the “M2 EC50” value is recorded as “No response”. Moreover, at human M4 receptor, the EC50 is 1500 nM and the Emax was found to be 55%.
As for `CCOC(=O)N1CCC[C@H](N2CCC(c3cccnc3OC)CC2)CC1` [Example 85, Ethyl (4S)-4-[4-(2-methoxypyridin-3-yl)piperidin-1-yl]azepane-1-carboxylate], the “M2 EC50” value on human M2 receptor (setting [1]) is on record as “No response”. For the same compound, at human M4 receptor, the EC50 worked out at 26 nM and the Emax was 91%.
For `CCOC(=O)N1CCC[C@@H](N2CCC(c3cccnc3OC)CC2)CC1` [Example 86, Ethyl (4R)-4-[4-(2-methoxypyridin-3-yl)piperidin-1-yl]azepane-1-carboxylate], at human M2 receptor (setting [1]), the “M2 EC50” value is “No response”. Further, at human M4 receptor, the EC50 was 310 nM and the Emax is 67%.

As a reminder, the EC50 is the concentration that produces a half-maximal response.
